This note sets out measurements from the METLIN SMRT retention time set (Domingo-Almenara et al. 2019).

Structures are written as SMILES.

The nature of the data set: gradient 5% acetonitrile 3 min, to 50% in 2 min, to 85% in 15 min, held 3 min, 100 µL/min. As to conditions: column: Zorbax Extend-C18 2.1 x 50 mm; eluents: water / acetonitrile, 0.1% formic acid. The gist of the method: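 The system's dead and dwell volumes were 40 μL and 900 μL, with a Zorbax Extend-C18 column (2.1 × 50 mm, 1.8 μm) run at 100 μL/min in water and acetonitrile containing 0.1% formic acid each. Pure standards were analyzed in mixtures of ~100 molecules by HPLC–quadrupole time-of-flight mass spectrometry in positive and negative ionization mode. Retention time was assigned from computationally picked, manually inspected adduct peaks.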
With `Cc1c(-c2noc(-c3cccc(F)c3)n2)nnn1-c1ccccc1`, the RP-LC retention time was determined as 1090 s.
Then `c1coc(CN2CC(Oc3ccc(-c4noc(-c5ccncc5)n4)cc3)C2)c1`, with 665 s; and `Cc1csc(-c2ccc(N3CCN(C(=O)c4cccc(F)c4)CC3)nc2)n1`, with 822 s; and `CCn1c(=O)sc2cc(S(=O)(=O)N3CCC(C(=O)NCc4cccnc4)CC3)ccc21`, with 610 s.
Next, `COc1ccc2nc(C(=O)NCc3ccccc3Br)cn2n1`: 891 s; `CN(C)C(=O)C1CCN(S(=O)(=O)Cc2ccc(F)cc2)CC1`: 691 s; `Cc1ccc(F)cc1S(=O)(=O)N1CCN(c2ccc(N3CCOCC3)nn2)CC1`: 592 s.
Next, `O=c1n(Cc2ccccc2F)nc2c(S(=O)(=O)N3CCCCC3)cccn12`: 891 s; `CCc1nnc2ccc(-c3noc(Cc4ccc(C)cc4)n3)cn12`: 918 s.
In turn, `COc1ccc(NC(=O)C2CCc3nc(N4CCC(C)CC4)ncc3C2)c(OC)c1` (stereo not given) displayed an RP-LC retention time of 873 s.
Next, `CC(C)CCNC(=O)C1(C)Cn2nc(C(=O)NCc3ccccc3F)cc2C(=O)N1C` (stereo not given): 763 s; `O=C(c1cccnc1)N1CCC(COCc2ccccc2)CC1`: 747 s.
Then `COCC1CN(S(=O)(=O)c2cc(F)ccc2C)CC12CCNCC2` (stereo not given), with 641 s; and `Cc1cc(C(=O)Nc2nc3c(F)cccc3s2)no1`, with 780 s; and `Cc1noc(-c2cccc(OC3CN(C(=O)NCC(C)C)C3)c2)n1`, with 808 s.
Then `O=C(c1cccc(Cl)c1)N1CCC(n2c(-c3ccoc3)nc3cccnc32)C1` (stereo not given), with 776 s.
As to `Cc1ccc(NC(=O)CNS(=O)(=O)c2cc(-c3noc(C)n3)sc2C)nc1`, the RP-LC retention time worked out at 730 s.
Then `Cc1nc(NCc2ccco2)sc1C(=O)Nc1ccc(F)c(Cl)c1`, with 900 s.
Next, `COc1ccc(N2CCN(c3cc(-c4nc(-c5ccccc5)no4)c4ccccc4n3)CC2)cc1`: 586 s; `COc1ccc(CNC(=O)c2cnc(OC)nc2)cc1`: 673 s.
Next, `CCN1C(=O)c2cccnc2Sc2cc(C(=O)NC3CCCCC3)ccc21`: 826 s.
On to `CCOC(=O)COC(=O)c1cn(-c2cccc(F)c2)c(=O)c2ccccc12`, for which the RP-LC retention time came out at 1020 s.
In turn, `O=C1COc2cc(S(=O)(=O)N3CCCC3C(=O)NC3CCCCCC3)c(Cl)cc2N1` (stereo not given) registered an RP-LC retention time of 819 s.
Then `CC(C)Cn1c(=O)c2cc(C(=O)Nc3ccc(N4CCOCC4)cc3)nn2c2ccccc21`, with 953 s.
Next, `Cc1cnc(-n2nnc(C(=O)N3CCOCC3)c2C)s1`: 658 s.
Then `CCCN1C(=O)COc2ccc(-c3noc(-c4ccccc4Cl)n3)cc21`, with 1240 s; and `O=C(CCC1CCN(S(=O)(=O)c2ccccc2)CC1)NCC1CCCCC1`, with 971 s.
`Cc1ccc2nc(-c3cccc(Cl)c3)c(Nc3ccccc3C)n2c1` showed an RP-LC retention time of 807 s.
Then `Cc1ccc(-c2cc(C(=O)NC(C)C)n(C)c2)cc1`, with 977 s; and `COc1ccccc1N1CCN(C(=O)C2CCN(c3nnc(-c4ccccc4)o3)CC2)CC1`, with 807 s.
Next, `Cn1nc(-c2nc(-c3ccccc3)no2)c2c1CCN(C(=O)Nc1cccc(Cl)c1)C2`: 1050 s; `Cc1c(S(=O)(=O)NC2CCCc3ccccc32)cc(C(=O)N2CCCCC2)n1C` (stereo not given): 907 s; `CCOc1ccc(Nc2nc(-c3c(C)nc4ccccn34)cs2)cc1`: 722 s.
Then `CC(C)OCCCNC(=O)c1c2c(cn(-c3ccc(F)cc3)c1=O)C(=O)CC(C)(C)C2`, with 885 s; and `COc1cccc(NC(=O)N2CCC3(CC2)NC(=O)c2ccc(F)cc2N3C)c1`, with 723 s.
In turn, `Cc1nc2cc(-c3ccccc3)nn2c(C)c1CCC(=O)N1CCN(c2ccccn2)CC1` registered an RP-LC retention time of 652 s.
Next, `Cc1cc(C)c(NC(=O)Cn2nc3c4ccccc4ncn3c2=O)c(C)c1`: 671 s; `Cc1c(F)cccc1NC(=O)Nc1ccc2nnc(C)n2c1`: 718 s; `COc1ccc(-c2cc3c(=O)n(Cc4nc(-c5ccccc5)oc4C)ccn3n2)cc1OC`: 966 s.
Molecule `CCc1ccc(-c2cc(C(=O)N3CCCN(c4cc(=O)n(C(C)C)c(=O)n4C(C)C)CC3)[nH]n2)cc1` yielded an RP-LC retention time of 946 s.
`O=S(=O)(c1ccc(F)cc1)N1CCN(c2cnn3cnnc3c2)CC1` registered an RP-LC retention time of 653 s.
Then `Cc1ccc(-c2noc3ncnc(N4CCN(c5ccccn5)CC4)c23)cc1`, with 690 s; and `Cc1ccc(CNC(=O)C(C)n2c3ccccc3c3cnn(C)c(=O)c32)o1` (stereo not given), with 882 s.
Molecule `O=C(NCc1ccccc1OC(F)(F)F)c1ccc(N2CCOCC2)nn1` came in with an RP-LC retention time of 777 s.
Next, `CCOC(=O)c1cnn(-c2ccc(C(=O)Nc3ccc(Br)cc3)cn2)c1N`: 1020 s.
For the molecule `COc1cc(CNCCc2ccc(S(N)(=O)=O)cc2)ccc1Oc1nnnn1-c1ccccc1`, the RP-LC retention time turned out to be 672 s.
Next, `CCOC(=O)c1nc(NCc2ccc3c(c2)OCO3)c2ccccc2n1`: 719 s; `O=C(NCc1ccccc1)C1(CCO)CC12CCOCC2` (stereo not given): 627 s.
Then `COC(=O)c1ccc(Cl)cc1NC(=O)N1CCN(C)c2ccccc21`, with 1240 s; and `C=CCOC(=O)COc1ccc2c(=O)c(-c3ccc(Cl)cc3)coc2c1`, with 1020 s; and `Cc1nc2cccnc2n1CCN1CCN(C(=O)Nc2ccc(F)c(Cl)c2)CC1`, with 618 s.
Then `CN1CCc2c([nH]c3ccccc23)C12CCN(S(=O)(=O)c1cccnc1)CC2`, with 585 s; and `O=C(NC1CCc2ccccc21)C1CCN(C(=O)c2ncn3c2COC(c2ccc(F)cc2)C3)CC1` (stereo not given), with 792 s; and `CC1CCCCN1Cc1nnc(-c2ccccc2)o1` (stereo not given), with 597 s.
On to `Cc1ccc(NC(=O)c2cc(C3CC3)n3nccc3n2)c(C)c1`, for which the RP-LC retention time worked out at 1110 s.
Regarding `Cc1ccc(Cc2nc(-c3ccc(-n4ccnc4)nc3)no2)cc1`, the RP-LC retention time turned out to be 759 s.
Then `CC(C)Cn1cc(NC(=O)N2CCN(c3ccccn3)CC2)c2ccccc2c1=O`, with 573 s; and `COc1cc(-c2nc3ncccn3c2Nc2ccc3c(c2)OCO3)ccc1O`, with 621 s; and `CCc1noc(-c2cc(=O)n(CC(=O)NC(C)CC)c3ccccc23)n1` (stereo not given), with 816 s.
Next, `CCOCCCNC(=O)CN1C(=O)CCn2nc(-c3cn(C)c4ccccc34)cc21`: 714 s.
Next, `CC(C)n1cnc(S(=O)(=O)N2CCC(C(=O)N3CCN(c4ccc(Cl)cc4)CC3)CC2)c1`: 865 s; `Cc1ccc(CNC(=O)C2=C3CCCN3c3ccc(F)cc3S2(=O)=O)cc1`: 909 s; `CC(=O)N1CCc2ccc(C(=O)NC3CCCCCC3)cc21`: 778 s.
`CCOC(=O)CNc1nc(-c2cccc([N+](=O)[O-])c2)nc2ccccc12` gave an RP-LC retention time of 833 s.
Then `COc1ccc(NC(=O)CSc2nnc3c4cc(-c5ccc(Cl)cc5)nn4ccn23)c(OC)c1`, with 951 s; and `COC(=O)c1c(NC(=O)c2cc(C)no2)sc(C)c1C`, with 1030 s.
Consider `O=C(NCc1csc(C2CCN(C(=O)c3cc(F)ccc3F)CC2)n1)C1CC1`, for which the RP-LC retention time was 668 s.
Next, `COc1ccc(CNC(=O)c2cn3cccc(C)c3n2)cc1`: 695 s.
Then `COc1ccc(C2Cn3nnc(-c4nc(-c5ccsc5)no4)c3CO2)cc1` (stereo not given), with 1070 s.
Then `Cc1ccc(-c2nc(C)c(C(=O)NC3CC3)s2)cc1`, with 888 s.
Regarding `O=C(NCCc1csc(-c2cccc(F)c2)n1)c1ccc2c(c1)OCO2`, the RP-LC retention time was found to be 847 s.
`CCN1C(=O)c2c(C(=O)NCc3ccc(Cl)cc3)ncn2CC1(C)C(=O)NC1CCCC1` (stereo not given) registered an RP-LC retention time of 798 s.
Then `O=C(CN1C(=O)CCc2cc(Br)ccc21)NCCc1ccccc1`, with 870 s; and `CCOc1cccc(-c2noc(Cn3c(=O)n(CCc4ccccc4)c(=O)c4sccc43)n2)c1`, with 660 s.
Next, `Cc1ccc(CNC(=O)C2CCCN(c3cnn(C)c(=O)c3)C2)cc1` (stereo not given): 715 s; `CCOc1ccccc1NC(=O)N1C[C@H](c2nc(-c3cccnc3)no2)[C@@H](C)C1`: 937 s.
Next, `Cc1ncc2c(SCC(=O)NCc3ccc(F)cc3F)ncnc2n1`: 579 s; `CC(=O)NCc1csc(C2CCN(C(=O)COc3ccc(Cl)cc3)CC2)n1`: 708 s; `COc1ccc(NC(=O)CN2CCc3c(c(=O)c4cc(C)ccc4n3C)C2)cc1`: 599 s.
Molecule `O=C(Cn1ccn2nc(-c3ccc(F)cc3)c(CO)c2c1=O)NCc1ccc2c(c1)OCO2` displayed an RP-LC retention time of 778 s.
